Measured values: ChEMBL document CHEMBL1821549, “Phylogeny-guided isolation of ethyl tumonoate A from the marine cyanobacterium cf. Oscillatoria margaritifera” (J Nat Prod, 2011)
Active and inactive are the calls of the source. No cut-off for these calls is given here.

Assays:
[1] = species on record: Mus musculus; test: Inhibition of calcium (Ca2+) oscillations in Swiss-Webster mouse neocortical neurons at 10 uM by Fluo-3 dye based fluorimetric assay; type: functional
[2] = test system: NCI-H460; test: Cytotoxicity against human H460 cells at =>10 ug/mL; type: cell-based
[3] = test system: RAW264.7; test: Antiinflammatory activity in mouse RAW264.7 cells assessed as inhibition of LPS-induced nitric oxide production incubated for 24 hrs by Griess method; type: functional, cell-based; conditions: RAW264.7, 24 h
[4] = test system: RAW264.7; test: Cytotoxicity against mouse RAW264.7 cells after 48 hrs by MTT assay; type: cell-based; conditions: raw264.7, 48 h

IC50 [3] | SMILES | inhibition [1] | Activity [2] | Activity [4]
 | CCCCCCCCC(C)[C@H](OC(C)=O)[C@H](C)C(=O)N1CCC[C@H]1C(=O)O (some centres not stated) | Active |  | 
9.8 µM | CCCCCCC/C=C(\C)[C@@H](O)[C@@H](C)C(=O)N1CCC[C@H]1C(=O)OCC [ETHYL TUMONOATE A] | Active | Non-toxic | Non-toxic
 | CCCCCCC/C=C(\C)[C@@H](O)[C@@H](C)C(=O)N1CCC[C@H]1C(=O)O | Active |  | 
 | CCCCCCCC[C@H](C)C(=O)N1CCC[C@H]1C(=O)O[C@@H](C(=O)O[C@@H](C)C(=O)O)[C@@H](C)CC | inactive |  | 
